In patent US20230165252A1, “ACTIVE COMPOUND COMBINATIONS” (Bayer Aktiengesellschaft, priority 2020, published 2023):
“And” between values parts separate entries of the source, which are not always exact repeats. Equal values may be shown once. Read-outs that look alike come from different tables or passages of the source.

What was measured:
Type in all cases: cell-based
[1] = tested on: Botrytis cinerea; assay: in vitro-Test with Botrytis cinerea (microtiter growth inhibition); settings: applied alone
Procedure: (§1) The degree of efficacy expressed in % is denoted: 0% means an efficacy, which corresponds to that of the control, while an efficacy of 100% means that no disease is observed.
(§2) If the actual fungicidal activity exceeds the calculated value, then the activity of the combination is super-additive, i.e. a synergistic effect exists. In this case, the efficacy, which was actually observed, must be greater than the value for the expected efficacy (E), that was calculated from the abovementioned formula.
(§3) Example: In Vitro-Test with Fungal Microorganisms
(§4) Wells of 96-well microtiter plates are filled with 10 μl of a preparation of test compound or compound combination in methanol+emulsifier alkylaryl-polyglycol-ether. Thereafter, the solvent is evaporated in a hood. At the next step, 100 μl of liquid potato dextrose medium is given into each well, that has been amended with an appropriate concentration of spores or mycelium suspension of the test fungus.
(§5) With the aid of a photometer, the extinction in all wells is measured at the wavelength of 620 nm.
(§6) The microtiter plates are incubated at 20° C. and 85% relative humidity. The inhibition of growth is determined again photometrically 3-5 days after the application. Efficacy is calculated in relation to the untreated control, 0% efficacy means fungal growth as high as in untreated control while 100% efficacy means no fungal growth is measured.

[2] = tested on: Cercospora beticola; assay: in vitro-Test with Cercospora beticola (microtiter growth inhibition); settings: alone
Procedure: as §1, §2, §3, §4, §5, §6

[3] = tested on: Parastagonospora nodorum; assay: in vitro-Test with Parastagonospora nodorum (microtiter growth inhibition)
Procedure: as §1, §2, §3, §4, §5, §6

[4] = tested on: Diaporthe citri; assay: in vitro-Test with Diaporthe citri (microtiter growth inhibition)
Procedure: as §2, §3, §4, §5, §6

[5] = tested on: Alternaria alternate; assay: in vitro-Test with Alternaria alternate (microtiter growth inhibition)
Procedure: as §1, §2, §3, §4, §5, §6

[6] = tested on: Ustilago segetum var. avenae; assay: in vitro-Test with Ustilago segetum var. avenae (microtiter growth inhibition); settings: single compound
Procedure: as §1, §2, §3, §4, §5, §6

[7] = tested on: Cordana musae; assay: in vitro-Test with Cordana musae (microtiter growth inhibition); settings: single substance
Procedure: as §1, §2, §3, §4, §5, §6

[8] = tested on: Fusarium culmorum; assay: in vitro-Test with Fusarium culmorum (microtiter growth inhibition); settings: Fusarium culmorum, read-out: Efficacy
Procedure: as §1, §2, §3, §4, §5, §6

[9] = Diaporthe citri, applied alone, 4 ppm, read-out: Efficacy
[10] = Alternaria, 0.8 ppm, alone, read-out: Efficacy %
[11] = Alternaria, 4 ppm, alone, read-out: Efficacy %
[12] = Neocordana musae, read-out: Efficacy

Molecule: CC(O)(Cn1cncn1)c1ccc(Oc2ccc(Cl)cc2)cc1C(F)(F)F (centres unmarked) [mefentrifluconazole]
- Efficacy ([1]; 0.04 ppm): 36%
- Efficacy ([1]; 0.2 ppm): 63%
- Efficacy ([1]; 1.0 ppm): 100%
- Efficacy % ([2]; 0.04 ppm): 100%
- Efficacy % ([2]; 0.2 ppm): 100%
- Efficacy ([3]; 0.008 ppm): 85%
- Efficacy ([3]; 0.04 ppm): 97%
- Efficacy ([3]; 0.2 ppm): 99%
- Efficacy ([3]; 1.0 ppm): 100%
- Efficacy ([4]; applied alone, 0.04 ppm): 85%
- Efficacy ([4]; applied alone, 0.2 ppm): 100%
- Efficacy ([4]; applied alone, 1.0 ppm): 100%
- Efficacy % ([5]; 0.008 ppm, alone): 0%
- Efficacy % ([5]; 1.0 ppm, alone): 100%
- Efficacy % ([6]; 0.008 ppm): 5%
- Efficacy % ([6]; 0.2 ppm): 67%
- Efficacy % ([6]; 1.0 ppm): 100%
- Efficacy ([7]; 0.008 ppm): 0%
- Efficacy ([7]; 1.0 ppm): 100%

Molecule: CCCOc1nc2ccc(I)cc2c(=O)n1CCC [proquinazid]
- Efficacy ([1]; 0.4 ppm): 0%
- Efficacy ([1]; 2 ppm): 0%
- Efficacy ([1]; 10 ppm): 0%
- Efficacy ([4]; applied alone, 0.4 ppm): 11%
- Efficacy ([4]; applied alone, 2 ppm): 0%
- Efficacy % ([5]; 0.08 ppm, alone): 0%
- Efficacy % ([5]; 0.4 ppm, alone): 0%
- Efficacy % ([5]; 2 ppm, alone): 0%
- Efficacy % ([5]; 10 ppm, alone): 0%
- Efficacy ([7]; 0.080 ppm): 0%
- Efficacy ([7]; 0.4 ppm): 0%
- Efficacy ([7]; 2 ppm): 0%

Molecule: OC(Cc1ccccc1Cl)(Cn1nc[nH]c1=S)C1(Cl)CC1 (centres unmarked) [prothioconazole]
- inhibition of growth at 0.008 ppm ([2]; Cercospora beticola, 0.008 ppm, read-out: Efficacy %): 0%
- inhibition of growth at 0.04 ppm ([2]; Cercospora beticola, 0.04 ppm, read-out: Efficacy %): 88%
- inhibition of growth at 0.008 ppm ([5]; Alternaria, 0.008 ppm, alone, read-out: Efficacy %): 0%
- inhibition of growth at 0.2 ppm ([5]; Alternaria, alone, read-out: Efficacy %): 100%
- inhibition of growth at 1 ppm ([5]; Alternaria, 1.0 ppm, alone, read-out: Efficacy %): 100%
- inhibition of growth at 0.04 ppm ([5]; Alternaria, applied alone, 0.04 ppm, read-out: Efficacy): 32%
- inhibition of growth at 0.2 ppm ([5]; Alternaria, applied alone, read-out: Efficacy): 99%
- inhibition of growth at 1 ppm ([5]; Alternaria, applied alone, 1.0 ppm, read-out: Efficacy): 100%
- inhibition of growth at 0.008 ppm ([7]; Neocordana musae, 0.008 ppm, read-out: Efficacy): 0%
- inhibition of growth at 0.04 ppm ([7]; Neocordana musae, 0.04 ppm, read-out: Efficacy): 64%
- inhibition of growth at 0.2 ppm ([7]; Neocordana musae, 0.2 ppm, read-out: Efficacy): 100%

Molecule: Cc1cc(C)nc(Nc2ccccc2)n1 [pyrimethanil]
- Efficacy ([1]; 0.8 ppm): 96%
- Efficacy ([1]; 4 ppm): 99%
- inhibition of growth at 0.8 ppm ([2]; Cercospora beticola, 0.8 ppm, read-out: Efficacy %): 0%
- inhibition of growth at 20 ppm ([2]; Cercospora beticola, 20 ppm, read-out: Efficacy %): 100%
- Efficacy ([3]; 0.8 ppm): 100%
- Efficacy ([3]; 4 ppm): 100%
- inhibition of growth at 4 ppm [4, 9]: 94%
- inhibition of growth at 0.8 ppm [5, 10]: 88%
- inhibition of growth at 4 ppm [5, 11]: 99%
- inhibition of growth at 20 ppm ([5]; Alternaria, 20 ppm, alone, read-out: Efficacy %): 100%
- inhibition of growth at 0.8 ppm ([5]; Alternaria, applied alone, 0.8 ppm, read-out: Efficacy): 100%
- inhibition of growth at 4 ppm ([5]; Alternaria, applied alone, 4 ppm, read-out: Efficacy): 100%
- inhibition of growth at 20 ppm ([5]; Alternaria, applied alone, 20 ppm, read-out: Efficacy): 100%
- inhibition of growth at 0.8 ppm ([7]; Neocordana musae, 0.8 ppm, read-out: Efficacy): 9%
- inhibition of growth at 20 ppm [7, 12]: 15%

Molecule: CCCN(CC)CC1COC2(CCC(C(C)(C)C)CC2)O1 (centres unmarked) [spiroxamine]
- Efficacy ([1]; 0.8 ppm): 5%
- Efficacy ([1]; 4 ppm): 4%
- inhibition of growth at 0.8 ppm ([8]; 0.8 ppm): 0%
- inhibition of growth at 4 ppm ([8]; 4 ppm): 0%
- inhibition of growth at 20 ppm ([8]; 20 ppm): 2%
- inhibition of growth at 0.8 ppm ([4]; Diaporthe citri, applied alone, 0.8 ppm, read-out: Efficacy): 0%
- inhibition of growth at 4 ppm [4, 9]: 0%
- inhibition of growth at 20 ppm ([4]; Diaporthe citri, applied alone, 20 ppm, read-out: Efficacy): 6%
- inhibition of growth at 0.8 ppm [5, 10]: 1%
- inhibition of growth at 4 ppm [5, 11]: 1%
- inhibition of growth at 0.8 ppm ([6]; 0.8 ppm, read-out: Efficacy %): 0%
- inhibition of growth at 4 ppm ([6]; 4 ppm, read-out: Efficacy %): 0%
- inhibition of growth at 20 ppm ([6]; 20 ppm, read-out: Efficacy %): 87%
- inhibition of growth at 4 ppm ([7]; Neocordana musae, 4 ppm, read-out: Efficacy): 0%
- inhibition of growth at 20 ppm [7, 12]: 4%

Molecule: mancozeb [Compound 5.013]
- Efficacy % ([2]; 0.4 ppm): 0%
- Efficacy % ([2]; 2 ppm): 100%
- Efficacy % ([2]; 10 ppm): 100%
- Efficacy ([4]; 0.4 ppm): 1%
- Efficacy ([4]; 2 ppm): 45%
- Efficacy ([4]; 10 ppm): 100%
- Efficacy ([4]; applied alone, 0.080 ppm): 0% and 3%
- Efficacy ([4]; applied alone, 0.4 ppm): 0%
- Efficacy ([4]; applied alone, 2 ppm): 52% and 53%
- Efficacy ([4]; applied alone, 10 ppm): 100%
- Efficacy ([5]; applied alone, 2 ppm): 6%
- Efficacy ([5]; applied alone, 10 ppm): 95%
- Efficacy % ([6]; 0.08 ppm): 1%
- Efficacy % ([6]; 2 ppm): 5%
- Efficacy % ([6]; 10 ppm): 100%

Molecule: propineb
- Efficacy ([4]; 4 ppm): 23%
- Efficacy ([4]; 20 ppm): 100%
- Efficacy ([4]; 100 ppm): 97%
- Efficacy ([4]; applied alone, 0.8 ppm): 0%
- Efficacy ([4]; applied alone, 20 ppm): 98% and 100%
- Efficacy ([4]; applied alone, 100 ppm): 100%
- Efficacy % ([5]; 0.8 ppm, alone): 18% and 11%
- Efficacy % ([5]; 4 ppm, alone): 32% and 21%
- Efficacy % ([5]; 20 ppm, alone): 66% and 71%
- Efficacy % ([5]; 100 ppm, alone): 92%
- Efficacy ([5]; applied alone, 4 ppm): 56%
- Efficacy ([5]; applied alone, 20 ppm): 73%
- Efficacy ([5]; applied alone, 100 ppm): 96%
- Efficacy % ([6]; 0.8 ppm): 4% and 6%
- Efficacy % ([6]; 20 ppm): 100%
- Efficacy % ([6]; 100.00 ppm): 79%
- Efficacy ([7]; 0.8 ppm): 0%
